This is an account of results in ChEMBL document CHEMBL1201862, “PubChem BioAssay data set” (2004).

Calls of active or inactive are those of the source.

In test [1] the target is Protein phosphatase methylesterase 1 (Homo sapiens, UniProt Q9Y570). The experiment in a line: PME-1 inhibitors by competitive ABPP, late-stage follow-up, gel-based ABPP, IC50, set 1 (AID 463130). The class given is functional.
Test [2] concerns the target T1, Alkaline phosphatase, tissue-nonspecific isozyme (Homo sapiens, UniProt P05186).
T1 sequence (P05186 whole entry): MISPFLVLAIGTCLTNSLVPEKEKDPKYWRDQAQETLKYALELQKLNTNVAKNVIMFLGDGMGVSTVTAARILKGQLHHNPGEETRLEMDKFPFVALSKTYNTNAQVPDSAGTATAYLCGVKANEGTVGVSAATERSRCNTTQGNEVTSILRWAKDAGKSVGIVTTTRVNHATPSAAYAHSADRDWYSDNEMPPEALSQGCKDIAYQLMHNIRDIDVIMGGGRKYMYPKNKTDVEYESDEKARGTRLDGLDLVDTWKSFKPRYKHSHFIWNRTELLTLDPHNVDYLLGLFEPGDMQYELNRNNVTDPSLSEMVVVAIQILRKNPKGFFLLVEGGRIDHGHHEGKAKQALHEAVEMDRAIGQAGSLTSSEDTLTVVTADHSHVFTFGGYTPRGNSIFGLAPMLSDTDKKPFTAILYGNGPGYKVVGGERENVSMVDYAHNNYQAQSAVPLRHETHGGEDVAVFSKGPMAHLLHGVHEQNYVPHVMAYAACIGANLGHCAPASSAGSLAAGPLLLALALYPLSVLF
The experiment in a line: human TNAP enzyme inhibitors, SAR follow-up, biochemical, luminescent, dose response (AID 1056).

The target in test [3] is Alkaline phosphatase, placental type (Homo sapiens, UniProt P05187). Nature of the test: PLAP enzyme inhibitors, confirmation, biochemical, luminescence (AID 1512). It counts as functional.
Test [4] concerns the target Delta-type opioid receptor (Homo sapiens, UniProt P41143). The experiment in a line: SAR Analysis of Antagonists of the DOR Receptor using an Image-Based Assay - Set 3. [Related pubchem assays (depositor defined):AID1777, AID1785]. The class given is functional.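 Note: U2OS cells expressing DOR1 and beta-arrestin GFP stimulated with 100 nM SNC80; imaging of GFP-tagged beta-arrestin moving into spots after receptor activation.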
Test [5] addresses T2, Kappa-type opioid receptor (Homo sapiens, UniProt P41145). The experiment in a line: SAR analysis of small molecule antagonists of the kappa opioid receptor via a luminescent beta-arrestin assay - Set 3. [Related pubchem assays (depositor defined):AID1777, AID1778, AID1785, AID1786, AID1966, AID2133, AID2136, AID2285, AID2495]. The class given is functional.
For test [6], the target named is T2, Kappa-type opioid receptor. The experiment in a line: SAR analysis of Antagonists of the Kappa Opioid Receptor (KOR) using an Image-Based Assay - Set 3. [Related pubchem assays (depositor defined):AID1777, AID1785]. It counts as functional.
Another test has as its target Mu-type opioid receptor (Homo sapiens, UniProt P35372). Nature of the test: SAR Analysis of Antagonists of the MOR Receptor using an Image-Based Assay - Set 3. [Related pubchem assays (depositor defined):AID1777, AID1785, AID1786, AID1966, AID2133, AID2136, AID2284, AID2285, AID2420]. The class given is functional.
In test [7] the target is T3, Voltage-gated N-type calcium channel alpha-1B subunit/Amyloid beta A4 precursor protein-binding family A member 1 (Homo sapiens, UniProt Q00975+Q02410). The class given is protein assay.
T3 sequence (Q00975 whole entry): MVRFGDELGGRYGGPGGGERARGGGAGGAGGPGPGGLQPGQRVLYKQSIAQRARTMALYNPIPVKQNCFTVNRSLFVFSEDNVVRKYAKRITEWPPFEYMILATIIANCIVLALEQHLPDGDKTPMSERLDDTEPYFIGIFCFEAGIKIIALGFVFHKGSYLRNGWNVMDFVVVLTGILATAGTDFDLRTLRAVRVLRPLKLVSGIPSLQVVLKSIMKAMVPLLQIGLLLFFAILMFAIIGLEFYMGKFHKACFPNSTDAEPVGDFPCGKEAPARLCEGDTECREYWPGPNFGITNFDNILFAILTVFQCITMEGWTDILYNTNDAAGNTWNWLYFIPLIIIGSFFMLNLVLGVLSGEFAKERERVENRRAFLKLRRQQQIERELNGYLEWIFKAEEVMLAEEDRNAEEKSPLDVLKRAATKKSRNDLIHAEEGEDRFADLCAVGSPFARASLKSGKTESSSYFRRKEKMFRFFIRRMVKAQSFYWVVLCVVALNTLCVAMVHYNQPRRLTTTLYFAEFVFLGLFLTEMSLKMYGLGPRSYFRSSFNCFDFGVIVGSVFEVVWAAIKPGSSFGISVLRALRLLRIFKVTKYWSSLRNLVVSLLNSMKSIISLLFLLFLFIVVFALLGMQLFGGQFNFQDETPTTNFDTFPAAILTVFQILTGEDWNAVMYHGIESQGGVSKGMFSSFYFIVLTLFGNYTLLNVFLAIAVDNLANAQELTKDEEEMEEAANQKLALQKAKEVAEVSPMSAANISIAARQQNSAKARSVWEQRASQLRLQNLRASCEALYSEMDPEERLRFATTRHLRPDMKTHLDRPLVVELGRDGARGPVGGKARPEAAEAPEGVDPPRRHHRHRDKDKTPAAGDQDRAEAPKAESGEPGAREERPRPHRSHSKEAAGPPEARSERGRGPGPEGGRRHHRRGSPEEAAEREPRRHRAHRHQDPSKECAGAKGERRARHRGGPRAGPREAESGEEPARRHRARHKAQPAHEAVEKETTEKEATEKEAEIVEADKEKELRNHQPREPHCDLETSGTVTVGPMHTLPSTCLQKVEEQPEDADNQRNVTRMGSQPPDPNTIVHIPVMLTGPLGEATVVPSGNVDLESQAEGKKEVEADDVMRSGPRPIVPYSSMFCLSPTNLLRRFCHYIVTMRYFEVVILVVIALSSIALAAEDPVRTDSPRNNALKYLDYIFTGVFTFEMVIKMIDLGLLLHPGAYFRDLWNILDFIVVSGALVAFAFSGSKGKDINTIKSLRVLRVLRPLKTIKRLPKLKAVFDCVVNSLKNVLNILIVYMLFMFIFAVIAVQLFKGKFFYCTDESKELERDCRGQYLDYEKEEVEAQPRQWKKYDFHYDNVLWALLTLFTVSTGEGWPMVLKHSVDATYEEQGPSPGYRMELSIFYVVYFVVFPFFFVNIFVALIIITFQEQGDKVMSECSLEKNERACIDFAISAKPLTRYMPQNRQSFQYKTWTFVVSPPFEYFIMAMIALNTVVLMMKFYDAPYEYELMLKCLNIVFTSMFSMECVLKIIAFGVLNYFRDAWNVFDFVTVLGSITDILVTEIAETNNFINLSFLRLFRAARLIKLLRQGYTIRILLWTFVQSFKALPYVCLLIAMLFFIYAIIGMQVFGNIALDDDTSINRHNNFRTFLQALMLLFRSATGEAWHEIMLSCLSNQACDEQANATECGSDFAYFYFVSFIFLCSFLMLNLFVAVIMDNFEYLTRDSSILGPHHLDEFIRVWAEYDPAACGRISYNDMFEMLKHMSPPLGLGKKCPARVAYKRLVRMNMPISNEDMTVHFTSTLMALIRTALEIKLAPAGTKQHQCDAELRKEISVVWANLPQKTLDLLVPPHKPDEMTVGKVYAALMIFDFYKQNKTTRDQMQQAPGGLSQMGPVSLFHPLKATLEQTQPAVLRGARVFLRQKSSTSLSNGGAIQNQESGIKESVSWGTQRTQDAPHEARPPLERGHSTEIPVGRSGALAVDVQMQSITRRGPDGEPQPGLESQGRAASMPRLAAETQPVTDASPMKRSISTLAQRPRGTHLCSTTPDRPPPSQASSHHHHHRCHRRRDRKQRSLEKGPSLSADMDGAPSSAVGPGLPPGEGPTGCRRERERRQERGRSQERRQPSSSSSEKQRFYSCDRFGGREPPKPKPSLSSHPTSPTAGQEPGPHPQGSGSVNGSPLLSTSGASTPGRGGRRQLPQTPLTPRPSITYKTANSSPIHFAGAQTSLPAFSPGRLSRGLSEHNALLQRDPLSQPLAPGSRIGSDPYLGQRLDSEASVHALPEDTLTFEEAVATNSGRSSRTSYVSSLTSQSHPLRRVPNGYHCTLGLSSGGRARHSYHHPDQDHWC
T3 sequence (Q02410 whole entry): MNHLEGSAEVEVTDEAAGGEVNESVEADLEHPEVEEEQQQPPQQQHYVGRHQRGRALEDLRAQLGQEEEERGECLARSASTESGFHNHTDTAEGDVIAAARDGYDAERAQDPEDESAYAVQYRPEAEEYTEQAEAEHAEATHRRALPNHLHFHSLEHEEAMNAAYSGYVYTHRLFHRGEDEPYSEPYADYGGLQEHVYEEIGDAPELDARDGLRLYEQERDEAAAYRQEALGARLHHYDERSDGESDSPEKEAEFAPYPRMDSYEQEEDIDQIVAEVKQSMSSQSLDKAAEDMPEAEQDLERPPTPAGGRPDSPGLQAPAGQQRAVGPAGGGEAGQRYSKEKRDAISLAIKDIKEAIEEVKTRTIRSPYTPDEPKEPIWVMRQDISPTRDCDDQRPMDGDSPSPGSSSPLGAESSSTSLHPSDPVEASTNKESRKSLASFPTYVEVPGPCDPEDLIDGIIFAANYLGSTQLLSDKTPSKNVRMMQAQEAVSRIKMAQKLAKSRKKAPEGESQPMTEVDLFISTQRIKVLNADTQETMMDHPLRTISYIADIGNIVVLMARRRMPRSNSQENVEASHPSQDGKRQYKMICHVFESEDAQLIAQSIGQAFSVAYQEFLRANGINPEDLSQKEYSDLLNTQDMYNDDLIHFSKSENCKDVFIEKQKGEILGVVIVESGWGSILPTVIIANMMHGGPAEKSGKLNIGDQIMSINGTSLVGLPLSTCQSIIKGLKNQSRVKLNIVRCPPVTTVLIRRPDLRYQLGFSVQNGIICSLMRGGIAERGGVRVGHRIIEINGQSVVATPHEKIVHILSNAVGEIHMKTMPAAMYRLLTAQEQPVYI
In test [8] the target is T3, Voltage-gated N-type calcium channel alpha-1B subunit/Amyloid beta A4 precursor protein-binding family A member 1. It counts as protein assay. This is another data set of the same source.
A further test concerns the target T4, X-box-binding protein 1 (Homo sapiens, UniProt P17861).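 Note: confirmatory dose-response counter-screen serving a CHOP assay.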
T4 sequence (P17861 whole entry): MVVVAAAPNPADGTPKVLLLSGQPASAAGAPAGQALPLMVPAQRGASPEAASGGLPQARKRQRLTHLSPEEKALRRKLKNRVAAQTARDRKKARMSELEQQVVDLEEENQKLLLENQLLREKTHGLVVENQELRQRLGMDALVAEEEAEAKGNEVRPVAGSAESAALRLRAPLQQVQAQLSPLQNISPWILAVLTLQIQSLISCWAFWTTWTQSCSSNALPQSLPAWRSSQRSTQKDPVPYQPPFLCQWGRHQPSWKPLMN
It counts as functional, Cricetulus griseus.

Test [9] concerns the target DNA damage-inducible transcript 3 protein (Mus musculus, UniProt P35639). The class given is functional, Cricetulus griseus.
Test [10] can be described thus: cytotoxicity toward DRD oncogenic fibroblasts, dose response, cell-based, non-viral oncogenic, luminescence (AID 1934). It counts as functional. Particulars: Homo sapiens.
Test [11] has as its system BJ. The experiment in a line: cytotoxicity toward BJ-TERT fibroblasts, dose response, cell-based, RAS-independent, luminescence (AID 1933). It counts as functional. Particulars: Homo sapiens.
Test [12] in a line: Intein inhibitors as potential Tuberculosis drugs, a cytotoxicity screen. [Related pubchem assays (depositor defined):AID2221, AID2223, AID434968, AID435010, AID449749, AID449750, AID489010]. It counts as functional.
The target in the next test is T5, Protein RecA (Mycobacterium tuberculosis, UniProt P9WHJ3).
T5 sequence (P9WHJ3 whole entry): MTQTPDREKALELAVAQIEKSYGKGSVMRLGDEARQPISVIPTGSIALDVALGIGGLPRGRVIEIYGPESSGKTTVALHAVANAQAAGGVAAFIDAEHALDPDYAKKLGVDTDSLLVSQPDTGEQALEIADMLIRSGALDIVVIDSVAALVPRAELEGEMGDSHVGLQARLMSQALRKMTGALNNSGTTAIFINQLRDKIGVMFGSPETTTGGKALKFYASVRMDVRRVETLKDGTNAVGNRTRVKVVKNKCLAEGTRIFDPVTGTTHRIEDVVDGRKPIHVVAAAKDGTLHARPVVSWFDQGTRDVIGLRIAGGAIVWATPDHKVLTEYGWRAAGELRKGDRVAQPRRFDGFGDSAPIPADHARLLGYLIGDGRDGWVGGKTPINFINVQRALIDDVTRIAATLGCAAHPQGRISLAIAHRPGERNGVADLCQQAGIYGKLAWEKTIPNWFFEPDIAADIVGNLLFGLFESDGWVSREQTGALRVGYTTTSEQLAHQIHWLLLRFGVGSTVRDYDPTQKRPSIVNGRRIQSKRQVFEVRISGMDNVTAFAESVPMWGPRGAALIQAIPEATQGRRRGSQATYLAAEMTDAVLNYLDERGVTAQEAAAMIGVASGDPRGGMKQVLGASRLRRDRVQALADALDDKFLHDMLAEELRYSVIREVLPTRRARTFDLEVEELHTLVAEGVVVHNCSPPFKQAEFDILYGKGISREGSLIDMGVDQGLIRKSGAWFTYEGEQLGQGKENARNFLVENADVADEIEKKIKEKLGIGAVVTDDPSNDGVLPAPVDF
The experiment in a line: Fluorescence Cell-Free Homogeneous Dose Retest to Identify Inhibitors of RecA-Intein Splicing Activity. [Related pubchem assays (depositor defined):AID2097, AID2223, AID489010, AID492950]. The class given is functional.

For test [13], the target named is T6, Microphthalmia-associated transcription factor (Homo sapiens, UniProt O75030).
T6 sequence (O75030 whole entry): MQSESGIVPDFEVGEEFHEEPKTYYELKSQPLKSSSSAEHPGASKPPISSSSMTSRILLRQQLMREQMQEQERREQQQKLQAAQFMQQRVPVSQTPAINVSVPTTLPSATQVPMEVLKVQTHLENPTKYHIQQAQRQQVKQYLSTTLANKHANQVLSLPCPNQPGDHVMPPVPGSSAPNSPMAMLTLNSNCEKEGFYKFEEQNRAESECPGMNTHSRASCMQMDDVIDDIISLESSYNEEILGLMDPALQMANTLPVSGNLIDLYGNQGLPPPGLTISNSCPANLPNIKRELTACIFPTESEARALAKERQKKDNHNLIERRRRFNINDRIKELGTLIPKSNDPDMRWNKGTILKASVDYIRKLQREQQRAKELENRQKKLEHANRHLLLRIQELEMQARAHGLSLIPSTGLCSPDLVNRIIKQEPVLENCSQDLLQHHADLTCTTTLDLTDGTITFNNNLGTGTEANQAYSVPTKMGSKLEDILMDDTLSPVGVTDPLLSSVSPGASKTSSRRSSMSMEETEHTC
Nature of the test: TRPM1 promoter luciferase signal decrease, dose response, MITF inhibitor project, cell-based, SK-MEL-5, cherry-picked, set 3 (AID 493073).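 Note: SK-MEL-5 melanoma cells with luciferase driven by the MITF target TRPM1 promoter.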 The class given is functional.

The test system of test [14] is BJ. Nature of the test: cytotoxicity toward BJ-TERT-LT-ST fibroblasts, dose response, cell-based, RAS-independent, luminescence (AID 1935).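 Note: BJ fibroblasts immortalized with TERT plus LT and ST oncogenes.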 It counts as functional. Conditions: Homo sapiens.
The subject of test [15] is BJ. The experiment in a line: cells. Conditions: Homo sapiens. It counts as functional, cell-based.
Test [16] concerns the target T7, Replicative DNA helicase DnaB (Mycobacterium tuberculosis, UniProt P9WMR3).
T7 sequence (P9WMR3 whole entry): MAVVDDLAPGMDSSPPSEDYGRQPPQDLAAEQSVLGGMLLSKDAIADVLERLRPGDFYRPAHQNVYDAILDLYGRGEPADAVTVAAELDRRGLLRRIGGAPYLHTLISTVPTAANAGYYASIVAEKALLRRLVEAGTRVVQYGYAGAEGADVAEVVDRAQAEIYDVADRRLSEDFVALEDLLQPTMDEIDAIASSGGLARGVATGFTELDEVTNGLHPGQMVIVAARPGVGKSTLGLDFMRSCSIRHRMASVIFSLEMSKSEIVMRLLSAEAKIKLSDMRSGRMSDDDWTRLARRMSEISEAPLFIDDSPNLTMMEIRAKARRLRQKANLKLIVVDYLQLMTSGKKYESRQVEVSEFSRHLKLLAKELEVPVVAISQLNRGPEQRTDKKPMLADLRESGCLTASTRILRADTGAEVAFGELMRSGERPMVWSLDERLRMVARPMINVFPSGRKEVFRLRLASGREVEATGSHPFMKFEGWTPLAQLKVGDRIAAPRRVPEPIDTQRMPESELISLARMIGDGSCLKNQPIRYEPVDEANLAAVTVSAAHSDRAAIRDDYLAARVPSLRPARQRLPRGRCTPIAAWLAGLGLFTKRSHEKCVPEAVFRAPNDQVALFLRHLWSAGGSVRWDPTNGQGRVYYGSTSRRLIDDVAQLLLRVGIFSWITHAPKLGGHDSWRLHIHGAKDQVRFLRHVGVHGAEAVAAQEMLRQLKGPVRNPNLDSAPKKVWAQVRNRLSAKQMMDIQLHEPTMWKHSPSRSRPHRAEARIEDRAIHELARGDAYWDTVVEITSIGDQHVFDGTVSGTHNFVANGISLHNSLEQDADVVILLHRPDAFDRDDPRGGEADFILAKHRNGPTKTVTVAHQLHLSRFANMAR
Nature of the test: DnaB intein splicing inhibitors, dose response, biochemical, cell-free fluorescence (AID 449749). The class given is functional.

For test [17], the target named is Glutathione S-transferase omega-1 (Homo sapiens, UniProt P78417). The experiment in a line: GSTO1 inhibitor potency, recombinant enzyme, late-stage follow-up, biochemical, SE-Rh probe, in-gel fluorescence, powder samples (AID 463081). It counts as functional.
Chain of Glutathione S-transferase omega-1 (P78417 whole entry): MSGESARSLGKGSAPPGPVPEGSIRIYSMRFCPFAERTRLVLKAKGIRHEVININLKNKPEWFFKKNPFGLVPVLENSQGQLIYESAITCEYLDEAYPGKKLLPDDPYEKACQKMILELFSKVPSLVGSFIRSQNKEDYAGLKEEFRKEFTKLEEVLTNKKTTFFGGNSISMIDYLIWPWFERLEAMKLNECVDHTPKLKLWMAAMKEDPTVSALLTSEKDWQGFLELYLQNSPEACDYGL
For the next test, the system named is T-cell. The experiment in a line: inhibitors of CD8+ T cell–vesicle binding, dose response, mouse 2C CD8+ T cells, flow cytometry (AID 485284). The class given is functional. Background: Flow cytometry measures light scatter and fluorescence of single cells or particles in a stream.
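Throughout, for CC50: cells exposed to compound for 72 hours before luminescence readout.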

T2 sequence (P41145 whole entry): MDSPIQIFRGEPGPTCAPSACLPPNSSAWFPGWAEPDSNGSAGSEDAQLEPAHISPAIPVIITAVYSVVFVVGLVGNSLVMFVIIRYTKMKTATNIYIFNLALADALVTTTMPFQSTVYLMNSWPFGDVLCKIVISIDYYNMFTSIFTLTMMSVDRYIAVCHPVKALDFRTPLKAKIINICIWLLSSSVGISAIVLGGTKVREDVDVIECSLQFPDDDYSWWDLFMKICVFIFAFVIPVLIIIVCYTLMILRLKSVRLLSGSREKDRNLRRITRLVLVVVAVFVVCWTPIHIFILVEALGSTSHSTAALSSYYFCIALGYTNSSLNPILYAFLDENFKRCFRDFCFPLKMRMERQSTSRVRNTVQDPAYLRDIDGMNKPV
Chain of Protein phosphatase methylesterase 1 (Q9Y570 whole entry): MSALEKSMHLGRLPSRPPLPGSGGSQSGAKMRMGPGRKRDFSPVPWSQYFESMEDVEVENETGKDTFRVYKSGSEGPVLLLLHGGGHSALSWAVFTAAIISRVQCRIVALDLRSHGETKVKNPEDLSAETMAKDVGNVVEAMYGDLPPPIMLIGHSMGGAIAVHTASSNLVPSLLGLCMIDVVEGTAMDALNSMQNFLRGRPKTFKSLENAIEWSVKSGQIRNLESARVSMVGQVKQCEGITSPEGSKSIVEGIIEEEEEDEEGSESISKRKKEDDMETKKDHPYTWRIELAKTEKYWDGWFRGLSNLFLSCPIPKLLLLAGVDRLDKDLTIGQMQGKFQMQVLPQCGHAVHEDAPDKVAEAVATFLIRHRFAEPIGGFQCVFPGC
Chain of Delta-type opioid receptor (P41143 whole entry): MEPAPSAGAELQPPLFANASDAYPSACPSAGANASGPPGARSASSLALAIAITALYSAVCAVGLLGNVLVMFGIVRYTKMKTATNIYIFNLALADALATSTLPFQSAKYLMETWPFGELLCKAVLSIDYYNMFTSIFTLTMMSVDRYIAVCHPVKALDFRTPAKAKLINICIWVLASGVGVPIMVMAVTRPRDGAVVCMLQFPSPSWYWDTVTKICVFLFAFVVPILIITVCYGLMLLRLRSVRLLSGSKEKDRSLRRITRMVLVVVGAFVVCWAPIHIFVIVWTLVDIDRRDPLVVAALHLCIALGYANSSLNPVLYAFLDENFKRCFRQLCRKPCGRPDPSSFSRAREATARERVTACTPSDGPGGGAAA
Chain of DNA damage-inducible transcript 3 protein (P35639 whole entry): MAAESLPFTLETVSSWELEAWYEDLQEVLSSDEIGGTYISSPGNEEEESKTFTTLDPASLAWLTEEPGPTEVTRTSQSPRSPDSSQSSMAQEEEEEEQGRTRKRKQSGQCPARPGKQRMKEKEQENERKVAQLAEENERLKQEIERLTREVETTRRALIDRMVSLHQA

Usually IC50 stands for the concentration at which inhibition is half-maximal. For `COC(=O)N1C(=O)[C@@](CC(C)C)(c2ccccc2)N1C(=O)OC`, the IC50 in [1] was 0.227 µM (active).

Consider `CCOC(=O)NC1(C(Cl)(Cl)Cl)Oc2ccc(Cl)cc2O1` (stereo unspecified), for which the values for the IC50 in test [2] and in test [3] were > 100 µM (inactive) and 55.5 µM (active), respectively.

`COc1ccc(CN(CCNC(=O)c2ccc(CNS(=O)(=O)c3ccc(C)cc3)cc2)C(C)C)cc1`: the IC50 was > 32 µM (inactive) in test [4], 2.29 µM (active) in [5], 0.532 µM (active) in test [6] and > 32 µM (inactive) at Mu-type opioid receptor.

For the compound `Cc1c(C)c2c(OCC(=O)Nc3cccnc3)cc3c(c2oc1=O)CCC(C)(C)O3`, the IC50 is 12.1 µM (active) in test [7] and > 50 µM (inactive) in test [8].

`C=CCO/C(O)=C1\C(C)=NC(SCC(=O)Nc2ccccc2)=C(C#N)C1c1ccco1` (stereo unspecified): the “Absolute IC50 (XBP1)” value at X-box-binding protein 1 is 10 µM. Also, the “Absolute IC50 (CHOP)” value in test [9] is 10 µM.

Broadly, the EC50 is the concentration that produces a half-maximal response. The CC50 is the concentration at which the toxic effect on the cells reaches its halfway point. For orientation: AC50 means the concentration at which the activity in the assay is half-maximal. As to `O=C(NC1CCCCC1)C(c1cccnc1)N(C(=O)CCl)c1cccc(Cl)c1` (stereo unspecified), the EC50 in test [10] is 2.77 µM (active); with BJ [11] it was 0.349 µM (active); at Protein RecA it was 0.467 µM (active); in the test on BJ [14], 7.06 µM (inconclusive); with BJ [15] it was 5.05 µM (active). Besides, in test [12], the CC50 is 0.82 µM (active). The AC50 in [13] was 4.16 µM (active); in test [16], 3.23 µM (active). Moreover, in [17], the IC50 is 0.038 µM (active).

Take `CN(C)C=O.O=C(COC(=O)C12CC3CC(CC(Br)(C3)C1)C2)Nc1cccc(S(=O)(=O)N2CCOCC2)c1`: the EC50 in the test on T-cell is 4.6 µM (active).
